One assay concerns the target T1, P2X7-E496A (Homo sapiens, UniProt Q99572, E496A).
T1 construct: expressed in transfected cells
T1 sequence (Q99572 1-595 E496A): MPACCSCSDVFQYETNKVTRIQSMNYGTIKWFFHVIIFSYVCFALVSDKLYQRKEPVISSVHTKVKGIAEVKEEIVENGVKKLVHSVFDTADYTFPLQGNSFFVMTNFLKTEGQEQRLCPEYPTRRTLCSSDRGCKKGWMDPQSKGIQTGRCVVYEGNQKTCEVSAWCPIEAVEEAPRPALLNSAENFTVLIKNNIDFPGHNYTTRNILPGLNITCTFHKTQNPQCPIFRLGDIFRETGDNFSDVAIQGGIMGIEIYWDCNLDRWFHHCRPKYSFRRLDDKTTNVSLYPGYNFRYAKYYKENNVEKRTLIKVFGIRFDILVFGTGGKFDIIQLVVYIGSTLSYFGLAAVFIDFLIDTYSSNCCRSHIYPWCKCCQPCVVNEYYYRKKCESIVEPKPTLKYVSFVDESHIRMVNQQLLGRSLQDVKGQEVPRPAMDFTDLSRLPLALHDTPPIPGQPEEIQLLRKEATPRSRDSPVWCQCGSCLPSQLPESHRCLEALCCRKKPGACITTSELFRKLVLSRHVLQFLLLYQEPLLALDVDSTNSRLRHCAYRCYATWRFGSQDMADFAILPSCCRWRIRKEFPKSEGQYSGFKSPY
The assay is described as follows: YO-PRO-1 uptake fluorimetric plate assay in transfected HEK 293 cells, P2X7-E496A. The settings on record: E496A variant. The class given is cell-based. From the text: (§1) Recombinant Expression and Functional Characterization of Variant P2RX7 Alleles. A pcDNA3 expression vector containing a cloned human P2RX7 cDNA associated with normal pore activity was subjected to point mutagenesis using the Quick Change Kit (Stratagene Inc., city, state) to create the variants P2X7-G150R, P2X7-Q460R, and P2X7-E496A. HEK 293 cells were transfected by the Superfect liposomal method and stable populations were selected by G418 resistance. Expression of P2X7 mRNA and protein in unstimulated transfected HEK cell cultures was verified by RT-PCR and immunoblotting as previously described.
(§2) YO-PRO-1 fluorescence was measured by a Synergy-HT fluorescent plate reader (Biotek, city, state) using X±Y nm excitation and A±B emission filters.

For a further assay, the target named is T2, P2X7-Q460R (Homo sapiens, UniProt Q99572, Q460R).
T2 construct: expressed in transfected cells
T2 sequence (Q99572 1-595 Q460R): T1 sequence (Q99572 1-595 E496A) with Q460R, A496E
Kind of assay: YO-PRO-1 uptake fluorimetric plate assay in transfected HEK 293 cells, P2X7-Q460R. Type of assay: cell-based.
Text: as §1, §2

The values below come from patent publication US7960131B2, “Functional genomic pore assay for mixed cell populations” (Wisconsin Alumni Research Foundation, priority 2003, dated 2011).

Residue numbers refer to the chain shown, from its start.

By EC50 is commonly meant the concentration giving half of the maximal effect.

Regarding “2′-3′-O-(4-benzoylbenzoyl)-adenosine 5′-triphosphate [Bz-ATP]”, at P2X7-E496A (potassium glutamate buffer), the “increase in YO-PRO-1 fluorescence” value is reported as “approximately half-maximal increase”. Moreover, the agonist-inducible pore activity result on P2X7-E496A (saline-containing buffers) was “lacking agonist-inducible pore activity”. For the same substance, on P2X7-Q460R, the concentration for a half-maximal effect (EC50) is about 30 µM and the “increase in YO-PRO-1 fluorescence over baseline” value was 8 fold.
